Tests used:
[1] = system: MDA-MB-231 breast cancer model; details: continued dosing at 40 mg/kg (½MTD), ref [16], cited from earlier work
MCF-7 cancer cells = details: read-out: MCF-7 IC50; Table 1; ref [17]–[20]; cited from earlier work
A2780ADR = experiment: potency toward A2780ADR; type: cell-based, human; details: read-out: drug IC50 A2780ADR; adriamycin resistant, MDR-1 overexpression
A2780cis = experiment: potency toward A2780cis; type: cell-based, human; details: read-out: drug IC50 A2780cis; cisplatin resistant
[2] = rodents; ref [7]–[9]; cited from earlier work
[3] = system: renal carcinoma cell line 786-0; experiment: potency toward MDR-1 expressing 786-0 cells with and without verapamil; type: cell-based
[4] = over 24 h; ref [16]; cited from earlier work
aqueous solubility = type: physicochemical

## COc1cc(C(=O)c2c(C)oc3c(OP(=O)([O-])[O-])c(OC)ccc23)cc(OC)c1OC.[Na+].[Na+] [Compound 9, Disodium (6-Methoxy-2-methyl-3-(3,4,5-trimethoxybenzoyl)benzofuran-7-yl)phosphate]
[1]; after 70 days
  complete eradication of tumors, % of the mice: 14%
[1]
  tumor growth on continued dosing: completely suppresses tumor growth

## COc1ccc(-c2sccc2C(=O)c2cc(OC)c(OC)c(OC)c2)cc1O [Compound 14]
MCF-7 cancer cells
  IC50: 300 ± 400 nM

## N.N.[Cl][Pt][Cl] [cisplatin]
A2780ADR
  IC50: 1100 nM
A2780cis
  IC50: 5020 nM

## COc1cc2c(c(OC)c1OC)-c1ccc(OC)c(=O)cc1[C@@H](NC(C)=O)CC2 [Compound 1, colchicine]
[2]
  LD50: < 5 mg/kg

## COc1cc(C(=O)c2c(C)oc3c(O)c(OC)ccc23)cc(OC)c1OC [Compound 8, 7-hydroxy-6-methoxy-2-methyl-3-(3,4,5-trimethoxybenzoyl)benzo-[b]furan]
[3]
  MDR-1 transporter substrate: not a substrate for the MDR-1 transporter
[4]
  clearance from healthy tissues: completely cleared from healthy tissues over 24 h
Aqueous solubility
  aqueous solubility: poor

Source: paper PMC3172808 (Journal of medicinal chemistry, 2011)
